Article PMC4105567, “Aurora Kinases as Druggable Targets in Pediatric Leukemia: Heterogeneity in Target Modulation Activities and Cytotoxicity by Diverse Novel Therapeutic Agents” (PLoS ONE, 2014)
Where two headings read alike, the source gives them in different places.

Tests used:
[1] = tested on: KOPN8 B-ALL cell line; experiment: Cytotoxicity assay, KOPN8; assay type: cell-based, human; settings: four days in culture, Alamar blue assay or automated microscopy, ± SD, three experiments
Experimental: (§1) Cell lines were cultured in Opti-MEM medium (Gibco, Life Technologies Corporation, Burlington, Ontario) supplemented with 10% heat inactivated fetal bovine serum (FBS) (Gibco), 100 units/ml penicillin and 100 units/ml streptomycin (Gibco) and 0.05 mM 2-mercaptoethanol (Sigma-Aldrich, Oakville, Ontario) in T25 flasks (Nalge Nunc, Rochester, New York) or T75 flasks (Corning Incorporated, Corning, New York). All cell cultures were maintained at 37°C in a humidified incubator with 5% CO2.
(§2) For cytotoxicity profiling of Aurora kinase inhibitors against leukemia cell lines, inhibitors or vehicle control (DMSO, Sigma-Aldrich) were diluted in 100 µl of Opti-MEM per well in 96 well plates (Grenier Bio-One, Monroe, North Carolina) in triplicate at final concentrations ranging from 1×10^−6 to 10 µM. 1×10^4 cells per well were seeded and plates were incubated for 4 days. Following incubation for 4 days, cell survival was quantified by Alamar blue assay (Invitrogen) or automated inverted microscopy using the Celigo Cell Cytometer (Cyntellect, San Diego, California). […] During this period of incubation, the absorbance at 570–620 nm was measured (Opsys MR Plate Reader, Dynex Technologies, Chantilly, Virginia) at various time points, depending on the cell line or sample. Percent survival was calculated by comparing the absorbance ratio of the test well to the control well multiplied by 100%, as indicated in the following formula: […]
(§3) For automated inverted microscopy, the number of cells in each well was determined using the direct cell counting application as described previously. Briefly, following adjustment of image acquisition settings for bright-field imaging, the wells containing cells and appropriate dilutions of inhibitors were individually scanned. Based on these images, analysis parameters, including intensity threshold and cell diameter, were modified for optimal inclusion of viable cells in treated and control wells. These parameters were applied for subsequent replicates involving the same leukemia cell line or sample. The percent survival was then calculated as a ratio of the number of cells in treated wells to the number of cells in control wells multiplied by 100%. Given that Aurora kinase inhibitors interfere with cytokinesis, cells that are committed to death may still contain enlarging but intact cytoplasmic content before the eventual loss of cytoplasmic membrane integrity. The accuracy of Alamar blue assay may be, in theory, affected by the timing of these events.

[2] = tested on: CEM T-ALL cell line; experiment: Cytotoxicity assay, CEM; assay type: cell-based, human; settings: four days in culture, Alamar blue assay or automated microscopy, ± SD, three experiments
Experimental: as §1, §2, §3

[3] = tested on: Patient #2 relapsed AML primary leukemia cells; experiment: Cytotoxicity assay, primary sample Patient #2; assay type: cell-based, human; settings: four days in culture, Alamar blue assay or automated microscopy, one complete study
Experimental: (§4) These include B-ALL (Patient #1), relapsed AML (Patient #2), AML/CML (Patient #3), infant ALL (Patient #4), and initial ALL presenting with secondary AML (Patient #5). […] The diluted sample was then layered on a Ficoll-Paque (GE Healthcare, Piscataway, New Jersey) gradient at a 1∶2 ratio of Ficoll to diluted sample. Samples were then centrifuged 1800 rpm for 20 minutes at room temperature. The buffy coat was removed with a pipette and transferred to a new centrifuge tube and diluted with PBS. After an additional centrifugation at 1200 rpm, the white blood cell pellet was washed with PBS and centrifuged one last time. Cells were re-suspended in Opti-MEM and viable cells were counted using trypan blue (Invitrogen, Life Technologies Corporation, Burlington, Ontario) exclusion on a haemocytometer. An identical protocol was followed for the isolation of white blood cells, referred to as “normal lymphocytes” in the following paragraphs, from healthy volunteers. Samples grown in culture for up to six months were cultured in Opti-MEM medium supplemented with 10% heat inactivated FBS, penicillin/streptomycin and 2-mercaptoethanol.
as §2, §3

[4] = tested on: Patient #3 AML/CML primary leukemia cells; experiment: Cytotoxicity assay, primary sample Patient #3; assay type: cell-based, human; settings: Homo sapiens, 96 h, four days in culture, Alamar blue assay or automated microscopy, one complete study
Experimental: as §4, §2, §3

[5] = tested on: Patient #4 infant leukemia primary cells; experiment: Cytotoxicity assay, primary sample Patient #4; assay type: cell-based, human; settings: four days in culture, Alamar blue assay or automated microscopy, one complete study
Experimental: as §4, §2, §3

[6] = tested on: HL-60 APML cell line; experiment: Cytotoxicity assay, HL-60; assay type: cell-based, human; settings: APML cell line HL-60, four days in culture, Alamar blue assay or automated microscopy, ± SD, three experiments
Experimental: as §1, §2, §3

[7] = tested on: NB4 APML cell line; experiment: Cytotoxicity assay, NB4; assay type: cell-based, human; settings: four days in culture, Alamar blue assay or automated microscopy, ± SD, three experiments
Experimental: as §1, §2, §3

[8] = tested on: HL-60 RA APML cell line; experiment: Cytotoxicity assay, HL-60 RA; assay type: cell-based, human; settings: APML cell line HL-60 RA, four days in culture, Alamar blue assay or automated microscopy, ± SD, three experiments
Experimental: as §1, §2, §3

[9] = tested on: C1 B-ALL cell line; experiment: Cytotoxicity assay, C1; assay type: cell-based, human; settings: four days in culture, Alamar blue assay or automated microscopy, ± SD, three experiments
Experimental: as §1, §2, §3

[10] = tested on: Bone Marrow Stroma; experiment: Cytotoxicity assay, bone marrow stroma; assay type: cell-based, human; settings: bone marrow stroma (control for non-leukemia cytotoxicity), four days in culture, ± SD, three experiments
Experimental: as §2, §3

[11] = tested on: SEM B-ALL cell line; experiment: Cytotoxicity assay, SEM; assay type: cell-based; settings: Homo sapiens, 96 h, four days in culture, Alamar blue assay or automated microscopy, ± SD, three experiments
Experimental: as §1, §2, §3

[12] = tested on: B1 B-ALL cell line; experiment: Cytotoxicity assay, B1; assay type: cell-based, human; settings: four days in culture, Alamar blue assay or automated microscopy, ± SD, three experiments
Experimental: as §1, §2, §3

[13] = tested on: UOCB1 B-ALL cell line; experiment: Cytotoxicity assay, UOCB1; assay type: cell-based, human; settings: four days in culture, Alamar blue assay or automated microscopy, ± SD, three experiments
Experimental: as §1, §2, §3

[14] = tested on: Aurora-C; settings: read-out: Targets (IC50 Value): Aurora-C; literature values; ref [10],[40],[44]–[64] as listed per inhibitor in Table 1; cited from earlier work
[15] = tested on: Normal Lymphocytes; experiment: Cytotoxicity assay, normal lymphocytes; assay type: cell-based, human; settings: normal lymphocytes (control for non-leukemia cytotoxicity), four days in culture, ± SD, three experiments
Experimental: as §4, §2, §3

[16] = tested on: MV4-11 AML cell line; experiment: Cytotoxicity assay, MV4-11; assay type: cell-based, human; settings: AML cell line MV4-11, four days in culture, Alamar blue assay or automated microscopy, ± SD, three experiments
Experimental: as §1, §2, §3

[17] = tested on: normal cells versus leukemia cell lines; experiment: Comparison of cytotoxicity IC50 values, normal cells versus leukemia cell lines; assay type: cell-based, human; settings: normal lymphocytes and bone marrow stroma versus leukemia cell lines of Table 2
Experimental: as §2, §3

[18] = tested on: TIB-202 AML cell line; experiment: Cytotoxicity assay, TIB-202; assay type: cell-based, human; settings: AML cell line TIB-202, four days in culture, Alamar blue assay or automated microscopy, ± SD, three experiments
Experimental: as §1, §2, §3

[19] = tested on: Molt-3 T-ALL cell line; experiment: Cytotoxicity assay, Molt-3; assay type: cell-based, human; settings: T-ALL cell line Molt-3, four days in culture, Alamar blue assay or automated microscopy, ± SD, three experiments
Experimental: as §1, §2, §3

[20] = tested on: Molm13 AML cell line; experiment: Cytotoxicity assay, Molm13; assay type: cell-based, human; settings: four days in culture, Alamar blue assay or automated microscopy, ± SD, three experiments
Experimental: as §1, §2, §3

[21] = tested on: Nalm6 B-ALL cell line; experiment: Cytotoxicity assay, Nalm6; assay type: cell-based, human; settings: four days in culture, Alamar blue assay or automated microscopy, ± SD, three experiments
Experimental: as §1, §2, §3

[22] = tested on: Patient #5 ALL/AML primary leukemia cells; experiment: Cytotoxicity assay, primary sample Patient #5; assay type: cell-based, human; settings: primary sample, four days in culture, Alamar blue assay or automated microscopy, one complete study, read-out: IC50, Patient #5 ALL/AML
Experimental: as §4, §2, §3

[23] = tested on: Patient #1 B-ALL primary leukemia cells; experiment: Cytotoxicity assay, primary sample Patient #1; assay type: cell-based, human; settings: four days in culture, Alamar blue assay or automated microscopy, one complete study
Experimental: as §4, §2, §3

[24] = tested on: Aurora-B; design: method as in earlier work; settings: literature values; ref [10],[22],[27],[40],[44]–[64] as listed per inhibitor in Table 1; read-out: Targets (IC50 Value): Aurora-B; cited from earlier work
[25] = tested on: Aurora-A; design: method as in earlier work; settings: literature values; ref [10],[22],[27],[40],[44]–[64] as listed per inhibitor in Table 1; read-out: Targets (IC50 Value): Aurora-A; cited from earlier work

For `CO[C@@H](C(=O)N1Cc2n[nH]c(NC(=O)c3ccc(N4CCN(C)CC4)cc3)c2C1)c1ccccc1` [PHA-739358], the IC50 ([1]; Homo sapiens, KOPN-8, 96 h) was 2 ± 1 nM, the IC50 ([2]; Homo sapiens, 96 h) was 10 ± 6 nM and the IC50 ([3]; Homo sapiens, 96 h) was 300 nM. For the same compound, the IC50 [4] was > 10000 nM, the IC50 ([5]; Homo sapiens, 96 h) was > 10000 nM and the IC50 ([6]; Homo sapiens, 96 h) was 900 ± 100 nM. For the same compound, the IC50 ([7]; Homo sapiens, 96 h) was 200 ± 100 nM, the IC50 ([8]; Homo sapiens, 96 h) was 7 ± 1 nM and the IC50 ([9]; Homo sapiens, 96 h) was 8 ± 1 nM. For the same compound, the IC50 ([10]; Homo sapiens, 96 h) was 3000 ± 1000 nM, the IC50 [11] was 80 ± 20 nM and the IC50 ([12]; Homo sapiens, 96 h) was 2000 ± 900 nM. For the same compound, the IC50 ([13]; Homo sapiens, UoC-B1, 96 h) was 60 ± 20 nM, the IC50 [14] was 61 nM and the IC50 ([15]; Homo sapiens, Lymphocyte, 96 h) was > 10000 nM. For the same compound, the IC50 ([16]; Homo sapiens, 96 h) was 3 ± 2 nM, the “IC50 values for the normal cells compared with IC50 values for the leukemia cell lines (potential therapeutic window)” value [17] was “lower than the IC50 values for the normal cells, but not as pronounced” and the IC50 ([18]; Homo sapiens, 96 h) was 2000 ± 900 nM. The IC50 ([19]; Homo sapiens, 96 h) was 4 ± 2 nM, the IC50 ([20]; Homo sapiens, MOLM-13, 96 h) was 6 ± 1 nM and the IC50 ([21]; Homo sapiens, NALM-6, 96 h) was 9 ± 0.9 nM. The IC50 ([22]; Homo sapiens, 96 h) was 1 nM and the IC50 ([23]; Homo sapiens, 96 h) was 0.9 nM.

For `CCN(CCCOc1ccc2c(Nc3cc(CC(=O)Nc4cccc(F)c4)n[nH]3)ncnc2c1)CCOP(=O)(O)O` [AZD1152], the IC50 [24] is listed as […], the IC50 [25] is listed as […] and the IC50 ([1]; Homo sapiens, KOPN-8, 96 h) is listed as 0.2 nM. The IC50 ([2]; Homo sapiens, 96 h) was < 0.001 nM, the IC50 ([3]; Homo sapiens, 96 h) was 600 nM and the IC50 [4] was > 10000 nM. For the same compound, the IC50 ([5]; Homo sapiens, 96 h) was > 10000 nM, the IC50 ([6]; Homo sapiens, 96 h) was 300 ± 90 nM and the IC50 ([7]; Homo sapiens, 96 h) was 50 ± 20 nM. The IC50 ([8]; Homo sapiens, 96 h) was 0.7 nM, the IC50 ([9]; Homo sapiens, 96 h) was 0.8 nM and the IC50 ([10]; Homo sapiens, 96 h) was > 10000 nM. The IC50 [11] was 100 ± 60 nM, the IC50 ([12]; Homo sapiens, 96 h) was 200 ± 100 nM and the IC50 ([13]; Homo sapiens, UoC-B1, 96 h) was 0.6 nM. The IC50 ([15]; Homo sapiens, Lymphocyte, 96 h) was > 10000 nM, the IC50 ([16]; Homo sapiens, 96 h) was 0.9 nM and the “IC50 values for the normal cells compared with IC50 values for the leukemia cell lines (potential therapeutic window)” value [17] was “higher than the IC50 values for the leukemia cell lines”. For the same compound, the IC50 ([18]; Homo sapiens, 96 h) was 500 ± 200 nM, the IC50 ([19]; Homo sapiens, 96 h) was < 0.001 nM and the IC50 ([20]; Homo sapiens, MOLM-13, 96 h) was 7 ± 3 nM. It also gave an IC50 ([21]; Homo sapiens, NALM-6, 96 h) of 8 ± 2 nM, an IC50 ([22]; Homo sapiens, 96 h) of 0.02 nM and an IC50 ([23]; Homo sapiens, 96 h) of 0.005 nM.

In the case of `CN(C)c1ccc(-c2nc3ncc(Cl)c(N4CCN(CC(=O)Nc5nccs5)CC4)c3[nH]2)cc1` [CCT129202], the IC50 [24] is listed as 200 nM, the IC50 [25] is listed as 40 nM and the IC50 [1] is listed as 700 ± 100 nM. The IC50 [2] was 900 ± 50 nM, the IC50 [3] was 400 nM and the IC50 [5] was > 10000 nM. The IC50 [6] was 7000 ± 800 nM, the IC50 [7] was > 10000 nM and the IC50 [8] was 8000 ± 500 nM. The IC50 [9] was 3000 ± 800 nM, the IC50 [10] was 1000 ± 700 nM and the IC50 [12] was 3000 ± 600 nM. The IC50 [13] was 900 ± 90 nM, the IC50 [15] was > 10000 nM and the IC50 [16] was 100 ± 60 nM. For the same compound, the “IC50 values for the normal cells compared with IC50 values for the leukemia cell lines (potential therapeutic window)” value [17] was “lower than the IC50 values for the normal cells, but not as pronounced”, the IC50 [18] was 50 ± 5 nM and the IC50 [19] was 2000 ± 600 nM. The IC50 [20] was 5000 ± 900 nM, the IC50 [21] was 2000 ± 800 nM and the IC50 [22] was 70 nM. The IC50 [23] was 700 nM.
